In publication PMC6837341, “Evolutionarily conserved susceptibility of the mitochondrial respiratory chain to SDHI pesticides and its consequence on the impact of SDHIs on human cultured cells” (PLoS ONE, 2019):

Molecular target: succinate cytochrome c reductase (SDH+CIII) (Homo sapiens, UniProt O14521+P21912+Q99643)
Experiment: Malonate-sensitive SCCR activity in fibroblasts grown in the presence of bixafen
Assay type: cell-based
Settings: cells grown in glucose medium with 20 μM bixafen, measured after repeated washing
Description: To test SDHIs on growing skin fibroblasts, cells trypsinized from a confluent 75-cm^2 flask culture were seeded in 4×75-cm^2 flasks (20–25% confluency) containing GlucoMax medium (S1 Table). After allowing the culture to stand for one night, the medium was changed to the desired conditions, i.e., GlucoMax medium or MitoMax medium (S1 Table), supplemented with the chosen amount of SDHI (control conditions compensated for DMSO used to solubilize SDHI; 14 mM max). The number of cells was estimated from random images using the ImageJ processing program for 15–20 days without changing the medium (one unique exposure to SDHI).
RC enzyme activities were spectrophotometrically measured using a pseudo-double-wavelength spectrophotometer (Cary 60, Agilent). […] With this aim, we measured the malonate-sensitive succinate cytochrome c reductase (SDH+CIII), glycerol-3-phosphate cytochrome c reductase (G3PDH+CIII) and antimycin-sensitive quinol cytochrome c reductase (CIII) as previously described.
Given the substantial effect of SDHIs on the activity of human SDH, we next assessed the effects of these compounds on the viability of human cells in culture (primary skin fibroblasts) (Figs 3, 4 and 5). […]

Sequence of succinate cytochrome c reductase (SDH+CIII) (P21912 29-280): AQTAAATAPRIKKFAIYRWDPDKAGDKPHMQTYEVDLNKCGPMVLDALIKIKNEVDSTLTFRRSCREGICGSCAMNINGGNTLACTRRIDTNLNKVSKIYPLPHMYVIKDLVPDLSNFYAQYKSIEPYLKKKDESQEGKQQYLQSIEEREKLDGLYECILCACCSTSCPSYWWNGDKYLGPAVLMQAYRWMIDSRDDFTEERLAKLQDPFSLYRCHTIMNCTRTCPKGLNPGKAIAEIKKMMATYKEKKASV
Sequence of succinate cytochrome c reductase (SDH+CIII) (Q99643 30-169): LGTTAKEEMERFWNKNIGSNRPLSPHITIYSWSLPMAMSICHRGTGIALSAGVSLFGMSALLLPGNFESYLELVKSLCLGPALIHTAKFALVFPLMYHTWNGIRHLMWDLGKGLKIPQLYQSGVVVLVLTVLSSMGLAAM
Sequence of succinate cytochrome c reductase (SDH+CIII) (O14521 57-159): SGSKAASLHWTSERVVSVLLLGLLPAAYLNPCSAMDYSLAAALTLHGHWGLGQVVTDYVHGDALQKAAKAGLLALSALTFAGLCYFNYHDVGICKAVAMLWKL
Sequence of succinate cytochrome c reductase (SDH+CIII) (P31040 43-664 partner): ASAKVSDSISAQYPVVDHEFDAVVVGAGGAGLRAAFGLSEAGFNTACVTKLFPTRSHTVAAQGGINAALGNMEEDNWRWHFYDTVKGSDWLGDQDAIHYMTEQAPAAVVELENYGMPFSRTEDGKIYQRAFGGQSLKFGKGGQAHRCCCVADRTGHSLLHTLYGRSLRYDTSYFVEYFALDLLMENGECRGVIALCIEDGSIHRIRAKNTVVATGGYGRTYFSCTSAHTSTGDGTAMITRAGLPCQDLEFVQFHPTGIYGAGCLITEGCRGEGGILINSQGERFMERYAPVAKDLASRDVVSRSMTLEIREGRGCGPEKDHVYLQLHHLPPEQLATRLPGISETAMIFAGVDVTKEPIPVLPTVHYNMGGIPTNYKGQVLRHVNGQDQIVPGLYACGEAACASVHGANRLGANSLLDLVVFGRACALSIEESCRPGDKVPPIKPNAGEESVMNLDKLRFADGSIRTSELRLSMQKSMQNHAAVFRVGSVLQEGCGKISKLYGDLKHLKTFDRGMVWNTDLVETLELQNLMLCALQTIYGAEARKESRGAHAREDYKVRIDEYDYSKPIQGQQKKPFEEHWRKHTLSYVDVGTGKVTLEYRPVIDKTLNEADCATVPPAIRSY

Structure (SMILES): Cn1cc(C(=O)Nc2ccc(F)cc2-c2ccc(Cl)c(Cl)c2)c(C(F)F)n1 [Bixafen, bixafen]
- Inhibition of malonate-sensitive SCCR activity in cells: 80%
